Several values for one entry are separate records, joined by “and”; a condition that tells them apart may be missing. Equal entries are not always repeated.
How the values were obtained:
Type in all cases: physicochemical
[1] = Fluidity after universal pulverization (angle of repose, Carr's index, electrostatic phenomenon); conditions: for Angle of repose / Carr's index % / ρbulk / ρtapped: after universal pulverization
Description: The amorphous form and crystal forms A and B of the compound of formula (1) were treated by universal pulverization.
The fluidity of the crystal form could be characterized by the angle of repose and the Carr's index. It was generally believed that the smaller the angle of repose and the Carr's index, the better the fluidity.

[2] = Moisture absorbability test (Chinese Pharmacopoeia 2015, General Principle 9103); conditions: for Moisture absorbability results: wrapped cells end with 'absorbability'
Text: A Test sample was taken and determined according to Chinese Pharmacopoeia, 2015 edition, vol. four, General Principle 9103, Guiding Principles for Drug Moisture Absorbability Test.

[3] = Stability study (high temperature, high humidity, light): properties, related substances, moisture, XRD; conditions: for Stability under high temperature, high humidity and light conditions (conclusion): overall conclusion of the stability study
Description: 2.1 Study Conditions for Crystal Form B of the Compound of Formula (1): • Placed at 105° C. for 5 days, left open, and sampled and tested on days 1 and 5; • placed at 60° C. for 10 days, left open, and sampled and tested on days 5 and 10; • placed under 25° C. RH 92.5% conditions for 10 days, left open, and sampled and tested on days 5 and 10; • under light conditions, using open and closed conditions (polyethylene bag+composite film bag), and sampling and testing when illumination requirements were met; and • placed under 40° C. RH 75% conditions for 1 month, left open, and sampled and tested on day 10 and after 1 month.
2.2 Study Conditions for Crystal Form a of the Compound of Formula (1): • Placed at 105° C. for 5 days, left open, and sampled and tested on days 1 and 5; • placed at 60° C. for 10 days, left open, and sampled and tested on days 5 and 10; • placed under 25° C. RH 92.5% conditions for 10 days, left open, and sampled and tested on days 5 and 10; • under light conditions, left open, and sampled and tested when illumination requirements were met; and • placed under 40° C. RH 75% conditions for 10 days, left open, and sampled and tested on days 5 and 10.
2.3 Study Conditions for the Amorphous Form of the Compound of Formula (1): • Placed at 60° C. for 10 days, left open, and sampled and tested on day 10; placed under 25° C. RH 92.5% conditions for 10 days, left open, and sampled and tested on day 10; and • under light conditions, using open and closed conditions (polyethylene bag+composite film bag), and sampling and testing when illumination requirements were met.
Illumination requirements: ICH Q1B Stability Test: Photostability Testing of New Drug Substances and formulation.
Determination of related substances: Determination by high performance liquid chromatography in accordance with “Chinese Pharmacopoeia”, 2015 edition, Vol. four, General Principle 0512.
Moisture determination: Determination according to “Chinese Pharmacopoeia”, 2015 edition, vol. four, General Principle 0832, Moisture Determination Method, First Method (Fischer's method), 2 Coulometric Titration Method.
XRD determination: Determination according to “Chinese Pharmacopoeia”, 2015 edition, vol. four, General Principle 0451 X-ray Diffraction Method—Second Method, Powder X-ray Diffraction Method.

[4] = Solubility in buffered salt solutions of different pH (HPLC external standard); conditions: for solubility at 24 h: buffered salt solution, 25 °C, thermodynamic from solid
Text: The solubility (mg/mL) of crystal forms A and B and the amorphous form of the compound of formula (1) under different pH conditions were as shown in Table 1.

[5] = Day 0, coulometric Fischer titration
[6] = Day 0, related substances by HPLC
[7] = Day 10, at 25° C. RH 92.5%, open
[8] = Light - closed (polyethylene bag+composite film bag), ICH Q1B illumination
[9] = Light - closed, ICH Q1B illumination
[10] = Light - open, ICH Q1B illumination
[11] = Light - open, pattern compared with day 0
[12] = buffered salt solution pH 1.0, shaken at 25° C. for 24 h
[13] = buffered salt solution pH 4.5, shaken at 25° C. for 24 h
[14] = buffered salt solution pH 6.8, shaken at 25° C. for 24 h
[15] = buffered salt solution pH 7.4, shaken at 25° C. for 24 h
[16] = Day 5, at 25° C. RH 92.5%, open

## Cc1cc(Nc2ncc(Cl)c(Nc3ccccc3S(=O)(=O)C(C)C)n2)c2c(c1C1CCNCC1)OCCO2 [Amorphous form, 5-chloro-N^4-(2-(isopropylsulfonyl)phenyl)-N^2-(7-methyl-8-(piperidin-4-yl)-2,3-dihydrobenzo[b][1,4]dioxin-5-yl)pyrimidine-2,4-diamine]
[1]
  Electrostatic phenomenon after pulverization: serious electrostatic phenomenon
  Angle of repose: 50.6 °
[2]
  Hygroscopic weight gain (%): 2.8%
  Moisture absorbability results: Having moisture
[3]; Day 0
  Properties: Off-white powder
[3]; [5]
  Moisture %: 0.92%
[3]; [6]
  Overall related %: 0.84%
[3]; [7]
  Moisture %: 6.9%
  Overall related %: 0.90%
  Properties: Off-white powder
[3]; Day 10, at 25° C. RH 92.5%, open, pattern compared with day 0 (wrapped cell reads 'same as day 0')
  XRD: Same as day 0
[3]; Day 10, at 60° C., open
  Moisture %: 0.69%
  Overall related %: 1.78%
  Properties: Light yellow powder
[3]; Day 10, at 60° C., open, pattern compared with day 0 (wrapped cell reads 'same as day 0')
  XRD: Same as day 0
[3]; [8]
  Properties: Off-white powder
[3]; [9]
  Moisture %: 0.62%
  Overall related %: 0.88%
[3]; Light - closed, pattern compared with day 0 (wrapped cell reads 'same as day 0')
  XRD: Same as day 0
[3]; [10]
  Moisture %: 2.3%
  Overall related %: 10.19%
  Properties: Light yellow powder
[3]; [11]
  XRD: Same as day 0
[3]
  Stability under high temperature, high humidity and light conditions (conclusion): unstable
[4]; [12]
  Solubility: 11200 µg/mL
[4]; [13]
  Solubility: 17 µg/mL
[4]; [14]
  Solubility: 10 µg/mL
[4]; [15]
  Solubility: 8.7 µg/mL

## Cc1cc(Nc2ncc(Cl)c(Nc3ccccc3S(=O)(=O)C(C)C)n2)c2c(c1C1CCNCC1)OCCO2 [Crystal form A, 5-chloro-N^4-(2-(isopropylsulfonyl)phenyl)-N^2-(7-methyl-8-(piperidin-4-yl)-2,3-dihydrobenzo[b][1,4]dioxin-5-yl)pyrimidine-2,4-diamine]
[1]
  Electrostatic phenomenon after pulverization: no obvious electrostatic phenomenon
  Angle of repose: 53 °
  Carr's index %: 45%
  ρbulk: 0.35 g/mL
  ρtapped: 0.63 g/mL
[2]
  Hygroscopic weight gain (%): 0.08%
  Moisture absorbability results: no or almost no moisture absorbability
[3]; Day 0
  Properties: Off-white powder
[3]; [5]
  Moisture %: 0.25%
[3]; [6]
  Overall related %: 0.64%
[3]; Day 1, at 105° C., open
  Moisture %: 0.18%
  Overall related %: 0.78%
  Properties: Off-white powder
[3]; [16]
  Moisture %: 0.23%
  Overall related %: 0.69%
  Properties: Off-white powder
[3]; Day 5, at 40° C. RH 75%, open
  Moisture %: 0.23%
  Overall related %: 0.79%
  Properties: Off-white powder
[3]; Day 5, at 60° C., open
  Moisture %: 0.17%
  Overall related %: 0.81%
  Properties: Off-white powder
[3]; Day 5, at 105° C., open
  Moisture %: 0.17%
  Overall related %: 1.6%
  Properties: Off-white powder
[3]; [7]
  Moisture %: 0.17%
  Overall related %: 0.78%
  Properties: Off-white powder
[3]; Day 10, at 40° C. RH 75%, open
  Moisture %: 0.15%
  Overall related %: 0.89%
  Properties: Off-white powder
[3]; Day 10, at 60° C., open
  Moisture %: 0.11%
  Overall related %: 1.0%
  Properties: Off-white powder
[3]; [10]
  Moisture %: 0.23%
  Overall related %: 1.9%
  Properties: Light yellow powder
[3]; [11]
  XRD: Same as day 0
[3]
  Stability under high temperature, high humidity and light conditions (conclusion): relatively stable
[4]; [13]
  Solubility: 2 µg/mL
[4]; [14]
  Solubility: Not detected
[4]; [15]
  Solubility: Not detected
[4]; pH 1, simulated gastric fluid, buffered salt solution pH 1.0, shaken at 25° C. for 24 h
  solubility at 24 h: 16900 µg/mL

## Cc1cc(Nc2ncc(Cl)c(Nc3ccccc3S(=O)(=O)C(C)C)n2)c2c(c1C1CCNCC1)OCCO2 [Crystal form B, 5-chloro-N^4-(2-(isopropylsulfonyl)phenyl)-N^2-(7-methyl-8-(piperidin-4-yl)-2,3-dihydrobenzo[b][1,4]dioxin-5-yl)pyrimidine-2,4-diamine]
[1]
  Electrostatic phenomenon after pulverization: no electrostatic phenomenon
  Angle of repose: 45.8 °
  Carr's index %: 30%
  ρbulk: 0.477 g/mL
  ρtapped: 0.683 g/mL
[2]
  Hygroscopic weight gain (%): 0.11%
  Moisture absorbability results: no or almost no moisture absorbability
[3]; 1 M, at 40° C. RH 75%, open
  Moisture %: 0.39%
  Overall related %: 0.11%
  Properties: Off-white crystalline
[3]; [5]
  Moisture %: 0.38% and 0.27%
[3]; [6]
  Overall related %: 0.09% and 0.10%
[3]; Day 1, at 105° C., open
  Moisture %: 0.34%
  Overall related %: 0.10%
  Properties: Off-white crystalline
[3]; [16]
  Moisture %: 0.37%
  Overall related %: 0.07%
  Properties: Off-white crystalline
[3]; Day 5, at 60° C., open
  Moisture %: 0.26%
  Overall related %: 0.08%
  Properties: Off-white crystalline
[3]; Day 5, at 105° C., open
  Moisture %: 0.37%
  Overall related %: 0.08%
  Properties: Off-white crystalline
[3]; [7]
  Moisture %: 0.43%
  Overall related %: 0.10%
  Properties: Off-white crystalline
[3]; Day 10, at 40° C. RH 75%, open
  Moisture %: 0.42%
  Overall related %: 0.09%
  Properties: Off-white crystalline
[3]; Day 10, at 60° C., open
  Moisture %: 0.45%
  Overall related %: 0.10%
  Properties: Off-white crystalline
[3]; [8]
  Properties: Off-white crystalline
[3]; [9]
  Moisture %: 0.41%
  Overall related %: 0.10%
[3]; [10]
  Moisture %: 0.21%
  Overall related %: 0.54%
  Properties: Yellow powder
[3]; [11]
  XRD: Same as day 0
[3]
  Stability under high temperature, high humidity and light conditions (conclusion): relatively stable
[4]; [12]
  Solubility: 19800 µg/mL
[4]; [13]
  Solubility: 22 µg/mL
[4]; pH 6.8, aqueous buffer, buffered salt solution pH 6.8, shaken at 25° C. for 24 h
  solubility at 24 h: 13 µg/mL
[4]; pH 7.4, aqueous buffer, buffered salt solution pH 7.4, shaken at 25° C. for 24 h
  solubility at 24 h: 10 µg/mL

— patent publication US12441717B2, “Crystal form of polycyclic anaplastic lymphoma kinase inhibitor” (SHANDONG XUANZHU PHARMA CO., LTD., priority 2020, dated 2025)
